# Compound: CC(O)(CS(=O)(=O)c1ccc(F)cc1)C(=O)Nc1ccc(C#N)c(C(F)(F)F)c1 [Bicalutamide] + CC(=O)c1c(C)c2cnc(Nc3ccc(N4CCNCC4)cn3)nc2n(C2CCCC2)c1=O [Palbociclib] (partner 0.5 µM)
# Experiment: relative viability (nuclei count vs DMSO), 5 days (fraction); higher = more cells survive
# Conditions: first compound 0.8 µM
# Method in brief: (§1)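 Nuclei were stained with Hoechst during a one-step fixation (final 0.05% Triton X-100, 1% formaldehyde, 1 ug/ml Hoechst) carried out 5 days after dosing, then counted on 4× images. The cells, lung cancer lines in 1536-well plates, had been dosed by pin tool the day after seeding with one drug alone or a fixed anchor-drug dose plus five library-drug doses (not always all listed) in √10 steps. Relative viability is the nuclei count in treated wells divided by that in vehicle wells, and each value is the median of duplicate plates.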
row,Cell Line,relative viability
1,EMC-BAC-2,0.543
2,NCI-H2087,0.237
3,HCC-366,0.583
4,NCI-H1666,0.652
5,NCI-H647,0.503
6,LK-2,0.783
7,NCI-H2126,0.344
8,NCI-H2342,0.726
9,SK-MES-1,0.3
10,H3255,0.308
11,COR-L23,0.353
12,COR-L 105,0.379
13,LOU-NH91,0.553
14,ChaGo-K-1,1.04
15,NCI-H2170,0.438
16,NCI-H3122,0.201
17,HOP-62,0.566
18,HCC-44,1.04
19,SW 900,0.529
20,LU99A,0.531
21,BEN,0.526

row,Cell Line,relative viability
1,HARA,0.329
2,NCI-H1648,0.317
3,HCC-78,0.499
4,NCI-H441,0.24
5,LCLC-97TM1,0.3
6,NCI-H2023,0.408
7,A-427,0.56
8,NCI-H460,0.193
9,NCI-H727,0.693
10,NCI-H1734,0.379
11,NCI-H520,0.286
12,NCI-H2405,0.581
13,SW 1573,0.457
14,NCI-H1395,0.639
15,201T,0.386
16,NCI-H1915,0.595
17,HCC-827,0.496
18,LXF-289,0.614
19,NCI-H2347,0.446
20,NCI-H650,0.397
21,CAL-12T,0.533

row,Cell Line,relative viability
1,NCI-H1651,0.582
2,EPLC-272H,0.341
3,NCI-H23,0.515
4,NCI-H1792,0.759
5,NCI-H1355,0.437
6,NCI-H322M,0.464
7,NCI-H1437,0.342
8,NCI-H1755,0.473
9,NCI-H2085,0.478
10,HCC-15,0.79
11,NCI-H1793,0.423
12,PC-3 [JPC-3],0.567
13,EKVX,0.445
14,LC-2-ad,0.464
15,NCI-H1944,0.354
16,NCI-H1975,0.688
17,SK-LU-1,0.43
18,ABC-1,0.808
19,NCI-H358,0.14
20,NCI-H661,0.424
21,RERF-LC-KJ,1.17

# Same assay, conditions: first compound 2.53 µM
row,Cell Line,relative viability
1,NCI-H522,0.894
2,NCI-H838,0.179
3,NCI-H1650,0.355
4,NCI-H2009,0.255
5,NCI-H1993,0.772
6,PC-14,0.422
7,LCLC-103H,0.51
8,NCI-H2228,0.779
9,EMC-BAC-2,0.437
10,NCI-H2087,0.24
11,HCC-366,0.359
12,NCI-H1666,0.675
13,NCI-H647,0.385
14,LK-2,0.63
15,NCI-H2126,0.32
16,NCI-H2342,0.523
17,SK-MES-1,0.281
18,H3255,0.302
19,COR-L23,0.269
20,COR-L 105,0.379
21,LOU-NH91,0.541
22,ChaGo-K-1,0.961
23,NCI-H2170,0.397
24,NCI-H3122,0.181

row,Cell Line,relative viability
1,HOP-62,0.502
2,HCC-44,0.944
3,SW 900,0.511
4,LU99A,0.393
5,BEN,0.496
6,HARA,0.242
7,NCI-H1648,0.254
8,HCC-78,0.476
9,NCI-H441,0.202
10,LCLC-97TM1,0.225
11,NCI-H2023,0.286
12,A-427,0.526
13,NCI-H460,0.102
14,NCI-H727,0.635
15,NCI-H1734,0.328
16,NCI-H520,0.226
17,NCI-H2405,0.486
18,SW 1573,0.351
19,NCI-H1395,0.568
20,201T,0.365
21,NCI-H1915,0.473
22,HCC-827,0.476
23,LXF-289,0.592
24,NCI-H2347,0.399

row,Cell Line,relative viability
1,NCI-H650,0.267
2,CAL-12T,0.329
3,NCI-H1651,0.518
4,EPLC-272H,0.295
5,NCI-H23,0.471
6,NCI-H1792,0.614
7,NCI-H1355,0.374
8,NCI-H322M,0.524
9,NCI-H1437,0.343
10,NCI-H1755,0.43
11,NCI-H2085,0.468
12,HCC-15,0.767
13,NCI-H1793,0.382
14,PC-3 [JPC-3],0.552
15,EKVX,0.374
16,LC-2-ad,0.516
17,NCI-H1944,0.323
18,NCI-H1975,0.492
19,SK-LU-1,0.378
20,ABC-1,0.601
21,NCI-H358,0.125
22,NCI-H661,0.388
23,RERF-LC-KJ,0.865

# Compound: CC(O)(CS(=O)(=O)c1ccc(F)cc1)C(=O)Nc1ccc(C#N)c(C(F)(F)F)c1 [Bicalutamide] + O=C(c1cc(Cc2n[nH]c(=O)c3ccccc23)ccc1F)N1CCN(C(=O)C2CC2)CC1 [Olaparib] (partner 8 µM)
# Experiment: as above
# Conditions: first compound 0.08 µM
# Method in brief: as §1
row,Cell Line,relative viability
1,NCI-H522,0.711
2,NCI-H838,0.777
3,NCI-H1650,0.989
4,EBC-1,0.707
5,NCI-H1703,0.431
6,NCI-H2009,0.675
7,NCI-H1993,1.05
8,PC-14,0.346
9,LCLC-103H,0.775
10,NCI-H596,0.604
11,NCI-H2228,0.748
12,EMC-BAC-2,0.528
13,NCI-H2087,0.527
